In data set [1] the test system is abdominal aorta. The data set can be described thus: tissue or blood. The note with it: Mus musculus.
Experimental: (§1) Aortic Vascular Reactivity: Abdominal aortic rings were assessed for vascular reactivity as previously described (30). Briefly, mice were euthanized by overdose of pentobarbital (50 mg, i.p.), and the abdominal aorta was quickly removed and placed in Kreb's buffer containing (in mmol/L): 118.3 NaCl, 4.7 KCl, 1.2 MgSO4, 1.2 KH2PO4, 25 NaHCO3, 2.5 CaCl2 and 11 glucose. Vascular rings (4-5 mm in length) were suspended in oxygenated Kreb's buffer (95% O2/5% CO2) in organ baths at 37° C. and connected to a force transducer via steel hooks. Resting tension was adjusted to 0.5 grams over 45 minutes.
(§2) Statistics: Data were analyzed by ANOVA with repeated measures as appropriate. Post-hoc analyses were performed using Bonferroni multiple-comparisons procedures. EC50 and maximum response calculations were performed by fitting individual dose-response data sets to a four-parameter logistic function (Hillslope method); y=min+(max−min)/(1+(x/EC50)̂Hill slope). […] All analytical comparisons were performed using SigmaStat/SigmaPlot (Systat). All data are presented as mean±sem.
Data set [2] relates to abdominal aorta. The settings on record: for Maximum Response, relaxation / Maximum Response, contraction / EC50: abdominal aorta; for Maximum Response, relaxation: after sub-maximal contraction with PGF2a; for EC50: read-out: EC50, contractile response.
Experimental: as §1, §2
Data set [3] relates to 2°-branch mesenteric artery. As to the kind of experiment: tissue or blood. On the set-up: species or system mice. The settings on record: for Maximum Response, contraction / EC50: mesenteric artery; for EC50: read-out: EC50, contractile response. The protocol:
Mesenteric Artery Vascular Reactivity: Secondary branches of mesenteric artery were dissected and placed in chilled oxygenated (21% O2, 5% CO2, and 74% N2) Kreb's buffer. A segment (˜1 mm long) of artery was transferred to a vessel chamber (DMT), cannulated with glass micropipettes and secured with silk ligatures. The artery was slowly pressurized to 40 mmHg without flow. After 30 min equilibration, vessel viability was tested by constriction response to 100 mM KCl. Vascular responses to PE (10-9-10-5 mol/L), AVP (10-12-10-7 mol/L), and ET-1 (10-11-10-8 mol/L) were then assessed. The artery was then superfused with calcium-free Krebs buffer containing 10-5 mol/L sodium nitroprusside and 2 mmol/L EGTA to maximally dilate the vessel. Internal and external diameters were measured at 75 mm Hg. Wall thickness, media/lumen ratio and cross sectional area (CSA) were calculated as previously described by Neves, et al. (58).
Statistics: Data were analyzed by ANOVA with repeated measures as appropriate. Post-hoc analyses were performed using Bonferroni multiple-comparisons procedures. EC50 and maximum response calculations were performed by fitting individual dose-response data sets to a four-parameter logistic function (Hillslope method); y=min+(max−min)/(1+(x/EC50)̂Hill slope). All mRNA fold changes were calculated using the Livak method (51). All analytical comparisons were performed using SigmaStat/SigmaPlot (Systat). All data are presented as mean±sem.

The subject of data set [4] is sRA mice. As to the kind of experiment: Blood pressure by tail-cuff during chronic subcutaneous infusion. It counts as in vivo. The settings on record: 22 ng/h sc by osmotic minipump, 10 days.
Experimental: Here we first examined blood pressure in sRA mice using a Visitech Systems BP-2000 tail-cuff blood pressure monitoring system, as previously described (79). Briefly, animals were acclimated to warmed restraint boxes daily for 1 wk. Once acclimated, 30 measurements of systolic blood pressure were averaged from each animal daily for 2 wk to assess baseline blood pressure. Conivaptan (Vaprisol, YM 087, 22 ng/h sc, Baxter Healthcare) or tolvaptan (OPC-41061, 22 ng/h sc, Sigma Aldrich) was delivered to distinct subsets of mice by osmotic minipump (model 1004, Alzet). After osmotic minipump implantation, pressures were recorded daily for 10 days to assess drug effects.
In data set [5] the test system is sRA mice. As to the kind of experiment: Radiotelemetric blood pressure, heart rate and physical activity during chronic subcutaneous infusion. Format: in vivo. The procedure: Blood pressure (telemetry). Radiotelemetric blood pressures were recorded from the carotid artery essentially as previously reported (27). Briefly, a telemeter probe (DSI, model TA11PA-C10) was inserted into the common carotid artery under ketamine-xylazine anesthesia. After >2 days of recovery, blood pressure, heart rate, and spontaneous physical activity were recorded for 30 s every 5 min using the Dataquest program (DSI). After baseline recordings, mice were chronically delivered conivaptan and tolvaptan via osmotic minipump that was implanted through an interscapular incision into the subcutaneous space of the back under isoflurane anesthesia.

Where [6] appears, read: female sRA mouse, 22 ng/h sc, 18 days.

Structures are written as SMILES. Where two headings read alike, the source gives them in different places.

The EC50 is the concentration at which the effect is half-maximal.

On to `CC(=O)OCC[N+](C)(C)C` [Acetylcholine, acetylcholine], for which the EC50 in the data set on abdominal aorta [1] (read-out: EC50, relaxation response, abdominal aorta, male control mice, after sub-maximal contraction with PGF2a) turned out to be 130 ± 35 nM; with abdominal aorta [1] (read-out: EC50, relaxation response, abdominal aorta, male sRA mice, after sub-maximal contraction with PGF2a), 879 ± 298 nM. For the same compound, the Maximum Response, relaxation in the data set on abdominal aorta [2] (male control mice) turned out to be 78.9 ± 3.3%; in the data set on abdominal aorta [2] (male sRA mice), 70.4 ± 8.9%.

Turning to `CC[C@H](C)[C@H](NC(=O)[C@H](Cc1ccc(O)cc1)NC(=O)[C@@H](NC(=O)[C@H](CCCNC(=N)N)NC(=O)[C@@H](N)CC(=O)O)C(C)C)C(=O)N[C@@H](Cc1c[nH]cn1)C(=O)N1CCC[C@H]1C(=O)N[C@@H](Cc1ccccc1)C(=O)O` [Angiotensin II, angiotensin II], the results for the “Maximum Response, contraction” value with abdominal aorta [2] (male control littermate mice) and in the data set with abdominal aorta [2] (male sRA mice) were 0.32 ± 0.03 g and 0.38 ± 0.03 g, respectively.

Turning to `CC[C@H](C)[C@H](NC(=O)[C@H](CC(=O)O)NC(=O)[C@H](CC(C)C)NC(=O)[C@H](Cc1c[nH]cn1)NC(=O)[C@@H]1CSSC[C@H](N)C(=O)N[C@@H](CO)C(=O)N[C@H]2CSSC[C@H](NC(=O)[C@H](CCC(=O)O)NC(=O)[C@H](CCCCN)NC(=O)[C@H](CC(=O)O)NC(=O)[C@H](CCSC)NC(=O)[C@H](CC(C)C)NC(=O)[C@H](CO)NC(=O)[C@H](CO)NC2=O)C(=O)N[C@@H](C(C)C)C(=O)N[C@@H](Cc2ccc(O)cc2)C(=O)N[C@@H](Cc2ccccc2)C(=O)N1)C(=O)N[C@H](C(=O)N[C@@H](Cc1c[nH]c2ccccc12)C(=O)O)[C@@H](C)CC` [Endothelin-1, endothelin-1], the Maximum Response, contraction in data set [3] (male control littermate mice) was determined as 67.8 ± 4.3%; in data set [3] (male sRA mice), 58 ± 4.6%; in the data set on abdominal aorta [2] (male control littermate mice), 0.45 ± 0.04 g; in the data set with abdominal aorta [2] (male sRA mice) it was 0.55 ± 0.09 g. Further, the EC50 in data set [3] (male control littermate mice) was determined as 1.68 ± 0.43 nM; in data set [3] (male sRA mice), 0.45 ± 0.17 nM; in the data set on abdominal aorta [2] (male control littermate mice), 3.4 ± 0.33 nM; in the data set with abdominal aorta [2] (male sRA mice), 5.19 ± 0.93 nM.

With `CNC[C@H](O)c1cccc(O)c1` [Phenylephrine, phenylephrine], the EC50 in the data set with abdominal aorta [1] (read-out: EC50, contractile response, abdominal aorta, male control littermate mice) stood at 1900 nM; with abdominal aorta [1] (read-out: EC50, contractile response, abdominal aorta, male sRA mice) it was 2430 nM; in data set [3] (Mus musculus, male control littermate mice), 1460 nM; in data set [3] (Mus musculus, male sRA mice), 560 ± 80 nM. The Maximum Response, contraction was determined as 67.3 ± 3% in data set [3] (male control littermate mice), 64.5 ± 4.1% in data set [3] (male sRA mice), 1.18 ± 0.05 g in the data set with abdominal aorta [2] (male control littermate mice) and 1.02 ± 0.10 g in the data set on abdominal aorta [2] (male sRA mice).

Consider `CCCCC[C@H](O)/C=C/[C@@H]1[C@@H](C/C=C\CCCC(=O)O)[C@@H](O)C[C@H]1O` [Prostaglandin F2α, prostaglandin F2a], for which, in the data set with abdominal aorta [2] (male control littermate mice), the “Maximum Response, contraction” value worked out at 1.59 ± 0.06 g and the EC50 was determined as 4600 nM. Moreover, in the data set on abdominal aorta [2] (male sRA mice), the “Maximum Response, contraction” value was found to be 1.50 ± 0.10 g and the concentration for a half-maximal effect (EC50) is 3600 nM.

On to `Cc1nc2c([nH]1)-c1ccccc1N(C(=O)c1ccc(NC(=O)c3ccccc3-c3ccccc3)cc1)CC2` [conivaptan], for which the “systolic blood pressure (tail-cuff), effect on hypertension” value with sRA mice [4] is reported as “complete normalization of the hypertension”. Besides, in the data set with sRA mice [5] (setting [6]), the “heart rate (telemetry)” value is listed as “slight reduction in heart rate” and the spontaneous physical activity result was “remained normal”. For the same compound, the radiotelemetric blood pressure entry in the data set with sRA mice [5] (sRA mice, 22 ng/h sc infusion (conivaptan 18 days, one female; tolvaptan 10 days, n=4 female)) is recorded as “gradual but substantial reduction in blood pressure”.

Consider `[Cl-].[K+]` [potassium chloride], for which the “contractile response to potassium chloride” value in data set [3] (mesenteric artery branches of sRA mice vs control, 100 mM KCl) was “significant reduction in contractile response”. In the data set with abdominal aorta [2] (aortic rings from sRA mice vs control, 100 mmol/l KCl), the “constrictor response to potassium chloride” value is given as “normal constrictor responses”.

(Values after patent publication US20150377876A1, “DIAGNOSTIC TOOLS TO PREDICT ONSET OF PREECLAMPSIA” (UNIVERSITY OF IOWA RESEARCH FOUNDATION, priority 2013, published 2015).)
